Results on 1 compound are retold here after patent US20250333419A1, “BICYCLIC COMPOUNDS AS INHIBITORS OF WRN” (Incyte Corporation, priority 2023, published 2025).

In data set [1] the target is T1, WRN (Homo sapiens, UniProt Q14191).
T1 construct: A His-tagged construct of WRN (AA S2-S1235) was produced and used for the ATPase assay; His; made in house; host or cells: Sf9 insect cells (baculovirus)
The data set can be described thus: WRN ATPase activity assay (ADP-Glo). The note with it: IC50, 1-hr pre-incubation with enzyme; geometric means of at least 2 independent replicates. It is filed as biochemical. On the procedure: Compounds of the Examples were tested for WRN ATPase activity. WRN ATPase activity catalyzes ATP hydrolysis to produce ADP and phosphate. DNA encoding the target protein, 6×HIS-TEV-WRN-517-945, was produced, cloned and transfected as detailed in Example D. The amount of ADP produced was measured using ADP-Glo™ Kinase Assay kit from Promega Corporation in a Greiner white regular volume 384 wells assay plate (Greiner #781075). Data was normalized to a standard curve generated using various ADP concentrations and the corresponding luminescent signal intensities at each concentration. The assay conditions were optimized for enzyme concentration (WRN), substrate concentrations (ATP & dsDNA), and the linearity of the ATPase reaction, in the following assay buffer: 50 mM Tris-HCl, pH-7.5, 2 mM MgCl2, 50 mM NaCl, 1 mM EGTA, 0.01% P-20, 0.05% BSA, and 2 mM DTT prepared with nuclease free water.
A serial dilution (1:3 scheme) of the compounds were prepared in neat DMSO, with 100 nL of the compounds dispensed in the 384 wells assay plate. An 1-hr pre-incubation of the compounds with enzyme was included. A His-tagged construct of WRN (AA S2-S1235) was produced and used for the ATPase assay. Maximum inhibition control wells were set up with the addition of only assay buffer, and no inhibition control wells were set up with neat DMSO without test compounds. The reaction was initiated by addition of 5 μL substrate mix (200 μM ultrapure ATP, and 50 nM dsDNA prepared in assay buffer) and incubated at 25° C. for 35 min. A forked dsDNA oligomer substrate was prepared by annealing equal amounts of oligo GPat-1 ([BHQ2][…]) and oligo GPat-2 ([…][TAM]) and was used as dsDNA substrate for WRN ATPase assay. A typical ATPase reaction consists of 25 nM forked dsDNA, 100 μM ATP, and 1 nM WRN prepared in assay buffer. The WRN ATPase reaction was stopped by the addition of 5 μL of ADP-Glo Reagent from ADP-Glo™ Kinase Assay kit and incubated for 40 min to deplete the unreacted ATP. Afterwards, 5 μL of Kinase Detection Reagent from the ADP-Glo™ Kinase Assay kit was added and incubated for 1 hr for the development of luminescence signal.
Luminesce signals were measured on BMG PHERAstar FSX using luminescence protocol. Data analysis was carried out using Genedata software following % of control normalization. Fitting parameters include dose response IC50, Hill slope (n), maximum inhibition (S∞), and minimum inhibition (S0). The reported IC50 values for compounds in this invention are the geometric means of at least 2 independent replicates.
Background: ADP-Glo first removes unused ATP, then detects ADP through luciferase.

In data set [2] the target is T1, WRN. Kind of data set: WRN Helicase activity assay (fluorescence DNA unwinding). Type of data set: biochemical. The note with it: IC50, 1-hr pre-incubation with enzyme; geometric means of at least 2 independent replicates. As to the method:
Compounds of the examples were tested for WRN helicase activity. DNA encoding the target protein, 6×HIS-TEV-WRN-517-945, was produced, cloned and transfected as detailed in Example D. To determine the inhibitory properties of the compounds, a 384 wells plate-based Helicase assay was set up to measure the extent of DNA unwinding (Helicase) activity of WRN. The WRN Helicase assay was designed to measure increase in fluorescence signal using a fluorescence based, donor-quencher paired forked dsDNA oligomer substrate (custom synthesis from Sigma-Aldrich) prepared by annealing equal amounts of oligo GPat-1 ([BHQ2][…]) and oligo GPat-2 ([…][TAM]). Continuous measurement of fluorescent signal was used to optimize the buffer conditions, concentration of enzyme (WRN), concentration of substrates (ATP & dsDNA), and the linearity of the Helicase reaction. All solutions were prepared in the following assay buffer: 50 mM Tris-HCl, pH-7.5, 2 mM MgCl2, 50 mM NaCl, 1 mM EGTA, 0.01% P-20, 0.05% BSA, and 2 mM DTT prepared with nuclease free water.
A serial dilution (1:3 scheme) of the compounds was prepared in neat DMSO and 100 nL of the compounds was dispensed in the Greiner black low volume (Greiner #784076) 384 wells assay plate. An 1-hr pre-incubation of the compounds with enzyme was included. A His-tagged construct of WRN (AA S2-S1235) was produced and used for the ATPase assay. Maximum inhibition control wells were set up with the addition of only assay buffer, and no inhibition control wells were set up with neat DMSO without test compounds. The reaction was initiated by addition of 5 μL substrate mix (200 μM ultrapure ATP, and 50 nM dsDNA prepared in assay buffer) and incubated at 25° C. for 35 min. A typical Helicase reaction consists of 25 nM forked dsDNA, 100 μM ATP, and 1 nM WRN prepared in assay buffer. The WRN Helicase reaction was quenched by the addition of 5 μL ‘STOP’ solution containing 100 mM EDTA (final EDTA concentration 33.33 mM) prepared in assay buffer. The plates were read on BMG PHERAstar FSX using 540/590 module to measure an increase of fluorescence. Data analysis was carried out using the Genedata software following % of control normalization. Fitting parameters include dose response IC50, Hill slope (n), maximum inhibition (S∞), and minimum inhibition (S0). The reported IC50 values for compounds in this invention are the geometric means of at least 2 independent replicates.

The target in another data set is T2, WRN Cys727Ser (Homo sapiens, UniProt Q14191, C727S).
T2 construct: Point mutations were made in the His-tagged WRN construct used for biochemical characterization (aa S2-S1235); His; made in house
The data set can be described thus: ATPase assay on WRN Cys727Ser mutant, without preincubation. Type of data set: biochemical. As to the method: (§1) Point mutations were made in the His-tagged WRN construct used for biochemical characterization (aa S2-S1235). Cysteine 580 (Walker A motif), 727 (linker), 864 (Domain 2 Å) and 1041 (RQC domain) were each mutated to both Serine and Alanine using site directed mutagenesis, for a total of eight mutants. Purified proteins were assayed in both helicase and ATPase assays. Cys580 mutation to either Ser or Ala abolished all activity, consistent with Walker A motif cysteine function. Cys864 (D2) mutation to alanine and Cys1041 (RQC domain) had no significant impact on helicase or ATPase activity. Cys727 abolished helicase activity (Table 6), whether it was mutated to Ala or Ser. ATPase activity for Cys727 mutants was reduced but not abolished (Table 7). Table 6 is the panel of the nine variant WRN helicase proteins that were screen using a flourscence-based DNA unwinding assay with an increase in flourscence intensity indicating DNA unwinding. Table 7 is the panel of the nine variant WRN helicase proteins that were screened using ADP-Glo assay to measure DNA stimulated ATPase activity, with an increase in luminescence indicating ATP hydrolysis.
(§2) From FIG. 2, the top line represented WT. […] The mutant experiments were performed without preincubation.

The target of data set [3] is T3, WRN helicase (Homo sapiens, UniProt Q14191).
T3 construct: His-tagged WRN construct used for biochemical characterization (aa S2-S1235); His; made in house; host or cells: Sf9 insect cells (baculovirus)
Kind of data set: ATPase assay on WRN helicase (ADP-Glo) with varied preincubation times. Type of data set: biochemical. As to the method: An ATPase assay on WRN helicase was performed using ADP-Glo and IC50 values were determined by varying the compound of Example 1 preincubation times (FIG. 1). […] In FIG. 1, 0 hrs is represented by bottom dotted line; 1 hour is represented by the broken line with two bullets; 2 hrs is represented by solid line; and 4 hrs is represented by top dashed line.

Data set [4] deals with WRN helicase. The data set can be described thus: Intact mass spectrometry and peptide mapping of covalent modification. It is filed as binding. As to the method:
The intact WRN helicase has an observed mass of 67,573.1 Da (theoretical mass of 67,409.4 Da). The WRN helicase incubated with the compound of Example 1 has an observed mass of 68,164.5 (theoretical mass of 1:1 adduct 68,000 Da). The shift in the observed mass between intact WRN and WRN incubated with the compound of Example 1 is equivalent to the theorectical mass of the compound of Example 1 (592.2 Da). […] The mass spectrometry results, combined with the ATPase assay results established that covalently targeting Cys727 is and effective and tractable way to inhibit both the ATPase and helicase activities of WRN.

Another data set has as its target T4, WRN Cys727Ala (Homo sapiens, UniProt Q14191, C727A).
T4 construct: Point mutations were made in the His-tagged WRN construct used for biochemical characterization (aa S2-S1235); His; made in house
The data set can be described thus: ATPase assay on WRN Cys727Ala mutant, without preincubation. Type of data set: biochemical. On the procedure: as §1, §2

T3 sequence (Q14191 2-1235): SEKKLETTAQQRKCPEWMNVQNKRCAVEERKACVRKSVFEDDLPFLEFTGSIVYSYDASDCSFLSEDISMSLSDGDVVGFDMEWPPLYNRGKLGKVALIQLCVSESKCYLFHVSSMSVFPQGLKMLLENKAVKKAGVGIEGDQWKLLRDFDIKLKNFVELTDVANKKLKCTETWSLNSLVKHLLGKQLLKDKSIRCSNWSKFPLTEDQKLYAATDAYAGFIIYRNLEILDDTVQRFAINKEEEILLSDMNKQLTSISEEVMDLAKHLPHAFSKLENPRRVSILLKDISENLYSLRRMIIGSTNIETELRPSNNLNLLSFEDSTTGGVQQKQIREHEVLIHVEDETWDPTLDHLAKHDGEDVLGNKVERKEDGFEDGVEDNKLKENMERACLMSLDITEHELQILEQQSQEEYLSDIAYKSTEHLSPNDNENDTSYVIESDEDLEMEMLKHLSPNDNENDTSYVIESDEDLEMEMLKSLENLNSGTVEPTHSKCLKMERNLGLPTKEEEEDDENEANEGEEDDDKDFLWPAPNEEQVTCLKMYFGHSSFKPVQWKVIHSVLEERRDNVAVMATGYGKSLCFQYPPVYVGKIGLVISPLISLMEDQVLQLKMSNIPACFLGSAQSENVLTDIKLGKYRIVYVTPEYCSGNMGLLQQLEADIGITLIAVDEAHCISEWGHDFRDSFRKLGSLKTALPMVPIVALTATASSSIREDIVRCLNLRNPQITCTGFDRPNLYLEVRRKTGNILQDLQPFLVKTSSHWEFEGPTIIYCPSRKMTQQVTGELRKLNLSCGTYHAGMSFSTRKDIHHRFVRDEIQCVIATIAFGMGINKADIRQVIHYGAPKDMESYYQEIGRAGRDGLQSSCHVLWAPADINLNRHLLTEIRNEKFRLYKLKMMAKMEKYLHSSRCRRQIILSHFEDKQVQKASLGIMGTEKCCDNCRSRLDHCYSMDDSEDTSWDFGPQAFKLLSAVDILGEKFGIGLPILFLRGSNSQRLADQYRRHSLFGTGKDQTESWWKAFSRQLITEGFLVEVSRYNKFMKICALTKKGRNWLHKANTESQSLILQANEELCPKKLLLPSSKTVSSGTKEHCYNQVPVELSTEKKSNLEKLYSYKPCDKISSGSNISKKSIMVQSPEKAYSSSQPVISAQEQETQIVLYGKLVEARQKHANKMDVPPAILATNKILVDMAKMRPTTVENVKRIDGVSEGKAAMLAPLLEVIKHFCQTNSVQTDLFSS
T4 sequence (Q14191 2-1235 C727A): as the sequence (Q14191 2-1235) above, with C726A counted along it
T1 sequence (Q14191 2-1235): as the sequence (Q14191 2-1235) above
T2 sequence (Q14191 2-1235 C727S): as the sequence (Q14191 2-1235) above, with C726S counted along it

Regarding `C=CC(=O)Nc1ccccc1-c1c(CC)n(CC(=O)Nc2ccc(C(F)(F)F)cc2)c2nc(C3=CCOCC3)nn2c1=O` [Example 1, N-(2-(2-(3,6-Dihydro-2H-pyran-4-yl)-5-ethyl-7-oxo-4-(2-oxo-2-((4-(trifluoromethyl)phenyl)amino)ethyl)-4,7-dihydro-[1,2,4]triazolo[1,5-a]pyrimidin-6-yl)phenyl)acrylamide], the IC50 (as a rule, the concentration that gives 50% inhibition) at WRN [1] was less than 0.1 µM; on WRN [2] it was less than 0.1 µM; at WRN Cys727Ser (Cys727Ser), 38.5 µM; against WRN helicase [3] (preincubation 1 hour) it was 0.024 µM; against WRN helicase [3] (preincubation 2 hrs), 0.012 µM; on WRN helicase [3] (preincubation 4 hrs), 0.008 µM. Moreover, the IC50 against WRN helicase [3] (without preincubation) came out at 0.449 µM; against WRN Cys727Ala (Cys727Ala, without preincubation) it was 5.82 µM. Moreover, the “fold shift relative to WT” value was 86 fold on WRN Cys727Ser (Cys727Ser vs WT) and 13 fold at WRN Cys727Ala (Cys727Ala vs WT, without preincubation). Also, the “time dependence of inhibition” value on WRN helicase [3] (FIG. 1) is recorded as “inhibits WRN helicase in a time dependent manner”. In the data set on WRN helicase [4] (intact mass spectrometry), the “adduct formation with WRN helicase” value was 1:1 adduct. Moreover, the residue modified result in the data set on WRN helicase [4] (peptide mapping analysis) was “Cys727 is the only residue to be modified”. For the same compound, at WRN Cys727Ala (FIG. 2, Cys727Ala and Cys727Ser), the “effect of Cys 727 mutation on potency” value is given as “reduces the potency”.
